Assay results reported in patent US20030068282A1, “Composition” (Unilever Home & Personal Care USA, Division of Conopco, Inc., priority 2001, published 2003).

Assay: salivary sediment model: amount of n-octyl paraben delivered from toothpaste to salivary sediment
Type: in vitro ADME
Settings: for amount of paraben delivered, Rep 1 / amount of paraben delivered, Rep 2 / amount of paraben delivered, Mean: toothpaste with 1.1% n-octyl paraben; for amount of paraben delivered, Rep 1 / amount of paraben delivered, Rep 2: ex-vivo samples; for amount of paraben delivered, Mean: mean of two repetitions
Procedure: Standard toothpastes comprising SLS and n-octyl paraben were tested in a salivary sediment model similar to that described by R. L. Wijeijweera and I. Kleinberg in Archs. Oral Biol., Vol. 34, No. 1, 1989, pages 43-53, using ex-vivo samples and measuring the amount of n-octyl paraben delivered to the salivary sediment.
Two repetitions were carried out for each SLS level in a paste comprising 1.1% n-octyl paraben. The values represnet the amount (ppm per ml sediment suspension) of paraben delivered.

CCCCCCCCOC(=O)c1ccc(O)cc1 [n-octyl paraben]
level of paraben delivered, comparison between SLS levels (SLS levels 1.4 and 1.6% compared with 1.8%): greater at SLS levels ranging at 1.4 and 1.6% than for 1.8%
amount of paraben delivered, Rep 1 (1.4% SLS in base): 60.080 ppm per ml sediment suspension
amount of paraben delivered, Rep 2 (1.4% SLS in base): 61.657 ppm per ml sediment suspension
amount of paraben delivered, Mean (1.4% SLS in base): 60.869 ppm per ml sediment suspension
amount of paraben delivered, Rep 1 (1.6% SLS in base): 59.534 ppm per ml sediment suspension
amount of paraben delivered, Rep 2 (1.6% SLS in base): 63.775 ppm per ml sediment suspension
amount of paraben delivered, Mean (1.6% SLS in base): 61.654 ppm per ml sediment suspension
amount of paraben delivered, Rep 1 (1.8% SLS in base): 48.790 ppm per ml sediment suspension
amount of paraben delivered, Rep 2 (1.8% SLS in base): 48.352 ppm per ml sediment suspension
amount of paraben delivered, Mean (1.8% SLS in base): 48.571 ppm per ml sediment suspension
